Data published in patent EP0908457B1, “3-(1,2-benzisothiazol- and isoxazol-5-Y1)-2,4(1H,3H)-pyrimidinedione or thione and 3-(1,2-benzisothiazol- and isoxazol-5-y1)-4(3H)-pyrimidinone or thione herbicidal agents” (BASF AKTIENGESELLSCHAFT, priority 1997, dated 1999).

Columns and labels:
[1] = system: Echinochloa oryzoides (Ard.) Fritsch.; assay: Preemergence weed control under flooded paddy conditions, ECHORC (Watergrass (Calif.)); format: in vivo; settings: preemergence, flooded paddy; as to herbicidal effect rating, ECHORC: meaning of each grade not given here
Cyperus iria = assay: Preemergence weed control under flooded paddy conditions, CYPIR (Rice Flatsedge); format: in vivo; settings: preemergence, flooded paddy; as to herbicidal effect rating, CYPIR: meaning of each grade not given here
[2] = system: Cyperus serotinus, Rottb.; assay: Preemergence weed control under flooded paddy conditions, CYPSE (Flatsedge); format: in vivo; settings: preemergence; as to herbicidal effect rating, CYPSE: meaning of each grade not given here
[3] = system: Monochoria vaginalis, Presl.; assay: Preemergence weed control under flooded paddy conditions, MOOVA (Monochoria); format: in vivo; settings: preemergence, flooded paddy; as to herbicidal effect rating, MOOVA: meaning of each grade not given here
Sagittaria pygmaea, L. = assay: Preemergence weed control under flooded paddy conditions, SAGPY (Arrowhead (Pygmaea)); format: in vivo; settings: preemergence, flooded paddy; as to herbicidal effect rating, SAGPY: meaning of each grade not given here
[4] = system: Oryza sativa, (L.) Tebonnet; assay: Rice tolerance to post-transplant applications under flooded paddy conditions (Example 187), ORYSAT (Rice, Tebonnet); as to herbicidal effect rating ORYSAT: meaning of each grade not given here
[5] = Rate 0.0320 kg/ha, rated three to four weeks after treatment
[6] = Rate 0.0620 kg/ha, rated three to four weeks after treatment
[7] = Rate 0.1250 kg/ha, rated three to four weeks after treatment
[8] = Rate 0.2500 kg/ha, rated three to four weeks after treatment
[9] = Rate 0.5000 kg/ha, rated three to four weeks after treatment
[10] = Rate 0.0320 kg/ha, rated 3-4 weeks after treatment
[11] = Rate 0.0620 kg/ha, rated 3-4 weeks after treatment
[12] = Rate 0.1250 kg/ha, rated 3-4 weeks after treatment
[13] = Rate 0.2500 kg/ha, rated 3-4 weeks after treatment
[14] = Rate 0.5000 kg/ha, rated 3-4 weeks after treatment

## C=CCC(C#N)(CC=C)c1nsc2ccc(-n3c(=O)cc(C(F)(F)F)n(C)c3=O)cc12 [Example 580, 1,2-Benzisothiazole-3-acetonitrile, alpha,alpha-diallyl-5-[3,6-dihydro-3-methyl-2,6-dioxo-4-(trifluoromethyl)-1(2H)-pyrimidinyl]-]
[1]; [5]
  herbicidal effect rating, ECHORC: 8.5
[1]; [6]
  herbicidal effect rating, ECHORC: 9.0
[1]; [7]
  herbicidal effect rating, ECHORC: 9.0
[1]; [8]
  herbicidal effect rating, ECHORC: 9.0
Cyperus iria; [5]
  herbicidal effect rating, CYPIR: 3.0
Cyperus iria; [6]
  herbicidal effect rating, CYPIR: 9.0
Cyperus iria; [7]
  herbicidal effect rating, CYPIR: 9.0
Cyperus iria; [8]
  herbicidal effect rating, CYPIR: 9.0
[2]; [5]
  herbicidal effect rating, CYPSE: 5.5
[2]; [6]
  herbicidal effect rating, CYPSE: 9.0
[2]; [7]
  herbicidal effect rating, CYPSE: 9.0
[2]; [8]
  herbicidal effect rating, CYPSE: 8.5
[3]; [5]
  herbicidal effect rating, MOOVA: 4.5
[3]; [6]
  herbicidal effect rating, MOOVA: 9.0
[3]; [7]
  herbicidal effect rating, MOOVA: 9.0
[3]; [8]
  herbicidal effect rating, MOOVA: 9.0
Sagittaria pygmaea, L.; [5]
  herbicidal effect rating, SAGPY: 5.5
Sagittaria pygmaea, L.; [6]
  herbicidal effect rating, SAGPY: 8.0
Sagittaria pygmaea, L.; [7]
  herbicidal effect rating, SAGPY: 8.0
Sagittaria pygmaea, L.; [8]
  herbicidal effect rating, SAGPY: 8.5
[4]; [5]
  herbicidal effect rating ORYSAT: 1.5
[4]; [6]
  herbicidal effect rating ORYSAT: 4.0
[4]; [7]
  herbicidal effect rating ORYSAT: 4.0
[4]; [8]
  herbicidal effect rating ORYSAT: 6.5

## Cc1ccc(OCC(=O)NS(=O)(=O)c2c(C)noc2C)c(-c2nsc3ccc(-n4c(=O)cc(C(F)(F)F)n(C)c4=O)cc23)c1 [Example 270, Acetamide, 2-{{2-{5-[3,6-dihydro-3-methyl-2,6-dioxo-4-(trifluoromethyl)-1(2H)-pyrimidinyl]-1,2-benzisothiazol-3-yl}-p-tolyl}oxy}-N-[(3,5-dimethylisoxazol-4-yl)sulfonyl]-]
[1]; [5]
  ECHORC herbicidal effect rating: 1.3
[1]; [6]
  ECHORC herbicidal effect rating: 2.7
[1]; [7]
  ECHORC herbicidal effect rating: 4.3
[1]; [8]
  ECHORC herbicidal effect rating: 9.0
[1]; [9]
  ECHORC herbicidal effect rating: 9.0
Cyperus iria; [5]
  CYPIR herbicidal effect rating: 8.0
Cyperus iria; [6]
  CYPIR herbicidal effect rating: 9.0
Cyperus iria; [7]
  CYPIR herbicidal effect rating: 9.0
Cyperus iria; [8]
  CYPIR herbicidal effect rating: 9.0
Cyperus iria; [9]
  CYPIR herbicidal effect rating: 9.0
[2]; [5]
  CYPSE herbicidal effect rating: 0.0
[2]; [6]
  CYPSE herbicidal effect rating: 0.0
[2]; [7]
  CYPSE herbicidal effect rating: 7.0
[2]; [8]
  CYPSE herbicidal effect rating: 9.0
[2]; [9]
  CYPSE herbicidal effect rating: 3.0
[3]; [5]
  MOOVA herbicidal effect rating: 9.0
[3]; [6]
  MOOVA herbicidal effect rating: 9.0
[3]; [7]
  MOOVA herbicidal effect rating: 9.0
[3]; [8]
  MOOVA herbicidal effect rating: 9.0
[3]; [9]
  MOOVA herbicidal effect rating: 9.0
Sagittaria pygmaea, L.; [5]
  SAGPY herbicidal effect rating: 0.0
Sagittaria pygmaea, L.; [6]
  SAGPY herbicidal effect rating: 0.0
Sagittaria pygmaea, L.; [7]
  SAGPY herbicidal effect rating: 0.0
Sagittaria pygmaea, L.; [8]
  SAGPY herbicidal effect rating: 0.0
Sagittaria pygmaea, L.; [9]
  SAGPY herbicidal effect rating: 5.0
[4]; [5]
  ORYSAT herbicidal effect rating: 4.0
[4]; [6]
  ORYSAT herbicidal effect rating: 4.0
[4]; [7]
  ORYSAT herbicidal effect rating: 7.0
[4]; [8]
  ORYSAT herbicidal effect rating: 8.0
[4]; [9]
  ORYSAT herbicidal effect rating: 2.0

## Cc1ccc(OCC(=O)OCCC2OCC(C)(C)CO2)c(-c2nsc3ccc(-n4c(=O)cc(C(F)(F)F)n(C)c4=O)cc23)c1 [Example 533, Acetic acid, {{2-{5-[3,6-dihydro-3-methyl-2,6-dioxo-4-(trifluoromethyl)-1(2H)-pyrimidinyl]-1,2-benzisothiazol-3-yl}-p-tolyl}oxy}-, 2-(5,5-dimethyl-m-dioxan-2-yl)ethyl ester]
[1]; [10]
  herbicidal effect rating, ECHORC: 7.5
[1]; [11]
  herbicidal effect rating, ECHORC: 9.0
[1]; [12]
  herbicidal effect rating, ECHORC: 9.0
[1]; [13]
  herbicidal effect rating, ECHORC: 9.0
Cyperus iria; [10]
  herbicidal effect rating, CYPIR: 2.0
Cyperus iria; [11]
  herbicidal effect rating, CYPIR: 3.0
Cyperus iria; [12]
  herbicidal effect rating, CYPIR: 4.0
Cyperus iria; [13]
  herbicidal effect rating, CYPIR: 9.0
[2]; [10]
  herbicidal effect rating, CYPSE: 0.0
[2]; [11]
  herbicidal effect rating, CYPSE: 0.0
[2]; [12]
  herbicidal effect rating, CYPSE: 3.0
[2]; [13]
  herbicidal effect rating, CYPSE: 9.0
[3]; [10]
  herbicidal effect rating, MOOVA: 9.0
[3]; [11]
  herbicidal effect rating, MOOVA: 9.0
[3]; [12]
  herbicidal effect rating, MOOVA: 9.0
[3]; [13]
  herbicidal effect rating, MOOVA: 9.0
Sagittaria pygmaea, L.; [10]
  herbicidal effect rating, SAGPY: 0.0
Sagittaria pygmaea, L.; [11]
  herbicidal effect rating, SAGPY: 0.0
Sagittaria pygmaea, L.; [12]
  herbicidal effect rating, SAGPY: 0.0
Sagittaria pygmaea, L.; [13]
  herbicidal effect rating, SAGPY: 4.0
[4]; [10]
  herbicidal effect rating ORYSAT: 3.0
[4]; [11]
  herbicidal effect rating ORYSAT: 4.5
[4]; [12]
  herbicidal effect rating ORYSAT: 5.0
[4]; [13]
  herbicidal effect rating ORYSAT: 8.0

## Cc1ccc(OCC(=O)c2ccc(OC(F)F)cc2)c(-c2nsc3ccc(-n4c(=O)cc(C(F)(F)F)n(C)c4=O)cc23)c1 [Example 543, 2,4(1H,3H)-Pyrimidinedione, 3-{3-{6-{[p-(difluoromethoxy)phenacyl]oxy}-m-tolyl}-1,2-benzisothiazol-5-yl}-1-methyl-6-(trifluoromethyl)-]
[1]; [10]
  herbicidal effect rating, ECHORC: 2.1
[1]; [11]
  herbicidal effect rating, ECHORC: 2.9
[1]; [12]
  herbicidal effect rating, ECHORC: 4.0
[1]; [13]
  herbicidal effect rating, ECHORC: 7.0
[1]; [14]
  herbicidal effect rating, ECHORC: 9.0
Cyperus iria; [10]
  herbicidal effect rating, CYPIR: 2.0
Cyperus iria; [11]
  herbicidal effect rating, CYPIR: 6.0
Cyperus iria; [12]
  herbicidal effect rating, CYPIR: 7.0
Cyperus iria; [13]
  herbicidal effect rating, CYPIR: 8.0
Cyperus iria; [14]
  herbicidal effect rating, CYPIR: 3.0
[2]; [10]
  herbicidal effect rating, CYPSE: 0.0
[2]; [11]
  herbicidal effect rating, CYPSE: 0.0
[2]; [12]
  herbicidal effect rating, CYPSE: 0.0
[2]; [13]
  herbicidal effect rating, CYPSE: 0.0
[2]; [14]
  herbicidal effect rating, CYPSE: 0.0
[3]; [10]
  herbicidal effect rating, MOOVA: 9.0
[3]; [11]
  herbicidal effect rating, MOOVA: 9.0
[3]; [12]
  herbicidal effect rating, MOOVA: 9.0
[3]; [13]
  herbicidal effect rating, MOOVA: 9.0
[3]; [14]
  herbicidal effect rating, MOOVA: 9.0
Sagittaria pygmaea, L.; [10]
  herbicidal effect rating, SAGPY: 0.0
Sagittaria pygmaea, L.; [11]
  herbicidal effect rating, SAGPY: 0.0
Sagittaria pygmaea, L.; [12]
  herbicidal effect rating, SAGPY: 0.0
Sagittaria pygmaea, L.; [13]
  herbicidal effect rating, SAGPY: 0.0
Sagittaria pygmaea, L.; [14]
  herbicidal effect rating, SAGPY: 0.0
[4]; [10]
  herbicidal effect rating ORYSAT: 0.0
[4]; [11]
  herbicidal effect rating ORYSAT: 0.0
[4]; [12]
  herbicidal effect rating ORYSAT: 1.0
[4]; [13]
  herbicidal effect rating ORYSAT: 2.0
[4]; [14]
  herbicidal effect rating ORYSAT: 2.0
